Biological target: cofactor-independent phosphoglycerate mutase (iPGM), Brugia malayi / Caenorhabditis elegans
Test: nematode iPGM enzyme inhibitors, biochemical, cofactor-independent, HTS (AID 743230)
Settings: recombinant nematode iPGM, coupled NADH absorbance decline

Row | IC50 [µM] | Compound
1 | 10.4 | CCc1cc2c[n+](C3CCCCC3)sc2s1
2 | 38.3 | Nc1cc2cccnc2c2ncccc12
